Like-named read-outs stand apart in the source and are kept apart here.
Legend:
K. pneumoniae = test system: K. pneumoniae; set-up: key: previously determined antibiotic resistance (shown with “X”); details: cited from earlier work
P. aeruginosa = test system: P. aeruginosa; set-up: key: previously determined antibiotic resistance (shown with “X”); details: cited from earlier work
P. mirabilis = test system: P. mirabilis; set-up: key: previously determined antibiotic resistance (shown with “X”); details: cited from earlier work
K. oxytoca = test system: K. oxytoca; set-up: key: previously determined antibiotic resistance (shown with “X”); details: cited from earlier work
E. coli = test system: E. coli; set-up: key: previously determined antibiotic resistance (shown with “X”); details: cited from earlier work
E. coli BAA-2469 [1] = test system: E. coli BAA-2469; set-up: unit not given beside the values
Text: Comparison Method: Results for the novel assay method described here were compared to broth microdilutions (BMD) performed according the […] 2018.

E. coli BAA-2469 [2] = test system: E. coli BAA-2469; set-up: unit not given beside the values; details: E. coli BAA-2469, regardless of the amount of S. aureus ATCC 25923 cells
[3] = test system: K. pneumonaie strain in clinical urine sample BIUR0084; assay: automated MultiPath AST cartridge on clinical urine, Example 8; type: cell-based, K. pneumoniae; details: for sensitive/resistant call by MulitPath: clinical urine BIUR0084, 4 h growth, fold growth value of 2; for growth call at all antibiotic concentrations (MulitPath assay): clinical urine BIUR0084, fold growth value of 2, 4 h

| Compound | previously determined antibiotic resistance (K. pneumoniae; K. pneumoniae ATCC13883) | previously determined antibiotic resistance (K. pneumoniae; K. pneumoniae CDC0010) | previously determined antibiotic resistance (K. pneumoniae; K. pneumoniae CDC0016) | previously determined antibiotic resistance (K. pneumoniae; K. pneumoniae CDC0107) | previously determined antibiotic resistance (K. pneumoniae; K. pneumoniae CDC0126) | previously determined antibiotic resistance (P. aeruginosa; P. aeruginosa ATCC27853) | previously determined antibiotic resistance (P. aeruginosa; P. aeruginosa CDC0105) | previously determined antibiotic resistance (P. aeruginosa; P. aeruginosa CDC0111) | previously determined antibiotic resistance (P. aeruginosa; P. aeruginosa CDC0242) | previously determined antibiotic resistance (P. aeruginosa; P. aeruginosa CDC0251) | previously determined antibiotic resistance (P. mirabilis; P. mirabilis ATCC7002) | previously determined antibiotic resistance (P. mirabilis; P. mirabilis CDC0029) | previously determined antibiotic resistance (P. mirabilis; P. mirabilis CDC0059) | previously determined antibiotic resistance (P. mirabilis; P. mirabilis CDC0155) | previously determined antibiotic resistance (P. mirabilis; P. mirabilis CDC0156) | previously determined antibiotic resistance (P. mirabilis; P. mirabilis CDC0159) | previously determined antibiotic resistance (K. oxytoca; K. oxytoca CDC0028) | previously determined antibiotic resistance (K. oxytoca; K. oxytoca CDC0071) | previously determined antibiotic resistance (K. oxytoca; K. oxytoca CDC0147) | previously determined antibiotic resistance (E. coli; E. coli ATCC25922) | further results |
| --- | --- | --- | --- | --- | --- | --- | --- | --- | --- | --- | --- | --- | --- | --- | --- | --- | --- | --- | --- | --- | --- |
| CC(C)(O/N=C(\C(=O)N[C@@H]1C(=O)N2C(C(=O)[O-])=C(C[n+]3ccccc3)CS[C@H]12)c1csc(N)n1)C(=O)O [Ceftazidime] | X | X | X | X | X | X | X | X | X | X | X | X | X | X | X | X | X | X | X | X | previously determined antibiotic resistance (K. pneumoniae; K. pneumoniae CDC0041): X; previously determined antibiotic resistance (K. pneumoniae; K. pneumoniae CDC0160): X; previously determined antibiotic resistance (P. aeruginosa; P. aeruginosa CDC0253): X; previously determined antibiotic resistance (E. coli; E. coli CDC0020): X; previously determined antibiotic resistance (E. coli; E. coli CDC0067): X; previously determined antibiotic resistance (E. coli; E. coli CDC0084): X; previously determined antibiotic resistance (E. coli; E. coli CDC0086): X; previously determined antibiotic resistance (E. coli; E. coli CDC0350): X |
| C[C@@H](O)[C@H]1C(=O)N2C(C(=O)O)=C(S[C@@H]3CN[C@H](C(=O)N(C)C)C3)[C@H](C)[C@H]12 [Meropenem] | X | X | X | – | – | – | X | X | X | – | X | X | X | X | X | X | X | X | X | X | previously determined antibiotic resistance (K. pneumoniae; K. pneumoniae CDC0034): X; previously determined antibiotic resistance (K. pneumoniae; K. pneumoniae CDC0043): X; previously determined antibiotic resistance (K. pneumoniae; K. pneumoniae CDC0076): X; previously determined antibiotic resistance (K. pneumoniae; K. pneumoniae CDC0080): X; previously determined antibiotic resistance (P. aeruginosa; P. aeruginosa CDC0232): X; previously determined antibiotic resistance (P. aeruginosa; P. aeruginosa CDC0247): X; previously determined antibiotic resistance (E. coli; E. coli CDC0001): X; previously determined antibiotic resistance (E. coli; E. coli CDC0006): X; previously determined antibiotic resistance (E. coli; E. coli CDC0020): X; previously determined antibiotic resistance (E. coli; E. coli CDC0085): X; previously determined antibiotic resistance (E. coli; E. coli CDC0114): X |
| O=C1CN(/N=C/c2ccc([N+](=O)[O-])o2)C(=O)N1 [Nitrofurantoin] | – | – | – | – | – | – | – | – | – | – | – | – | – | – | – | – | – | – | – | – | MIC, CLSI-like broth microdilution (E. coli BAA-2469 [1]; E. coli BAA-2469, in the absence of S. aureus): 8; MIC, CLSI-like broth microdilution (E. coli BAA-2469 [1]; E. coli BAA-2469, with a 100-fold excess of S. aureus ATCC 25923): 32; MIC, novel 4-hour AST assay (MultiPath) (E. coli BAA-2469 [2]): 8 |
| O=C(O)c1cn(C2CC2)c2cc(N3CCNCC3)c(F)cc2c1=O [Ciprofloxacin] | X | – | X | – | X | X | – | – | – | X | X | X | X | X | X | X | X | X | X | X | previously determined antibiotic resistance (K. pneumoniae; K. pneumoniae CDC0034): X; previously determined antibiotic resistance (K. pneumoniae; K. pneumoniae CDC0076): X; previously determined antibiotic resistance (K. pneumoniae; K. pneumoniae CDC0117): X; previously determined antibiotic resistance (P. aeruginosa; P. aeruginosa CDC0253): X; previously determined antibiotic resistance (P. aeruginosa; P. aeruginosa CDC0259): X; previously determined antibiotic resistance (P. aeruginosa; P. aeruginosa CDC0261): X; previously determined antibiotic resistance (P. aeruginosa; P. aeruginosa CDC0262): X; previously determined antibiotic resistance (E. coli; E. coli BAA-2452): X; previously determined antibiotic resistance (E. coli; E. coli BAA-2469): X; previously determined antibiotic resistance (E. coli; E. coli BAA-2471): X; previously determined antibiotic resistance (E. coli; E. coli CDC0017): X; previously determined antibiotic resistance (E. coli; E. coli CDC0019): X |
| Cc1nnc(SCC2=C(C(=O)O)N3C(=O)[C@@H](NC(=O)Cn4cnnn4)[C@H]3SC2)s1 [Cefazolin] | – | – | – | – | – | – | – | – | – | – | – | – | – | – | – | – | – | – | – | – | sensitive/resistant call by MulitPath [3]: resistant; growth call at all antibiotic concentrations (MulitPath assay) [3]: growth |
| Trimethoprim/Sulfamethoxazole | X | X | X | X | X | – | – | – | – | – | X | X | X | X | X | X | X | X | X | X | previously determined antibiotic resistance (K. pneumoniae; K. pneumoniae CDC0117): X; sensitive/resistant call by MulitPath [3]: resistant; growth call at all antibiotic concentrations (MulitPath assay) [3]: growth; previously determined antibiotic resistance (E. coli; E. coli BAA-2469): X; previously determined antibiotic resistance (E. coli; E. coli BAA-2471): X; previously determined antibiotic resistance (E. coli; E. coli CDC0017): X; previously determined antibiotic resistance (E. coli; E. coli CDC0019): X; previously determined antibiotic resistance (E. coli; E. coli CDC0084): X |

Reference: patent publication US12704506B2, “Microbial analysis without cell purification” (First Light Diagnostics, Inc., priority 2018, dated 2026)
